Converted amounts (≈) assume the structure as drawn. Read-outs that look alike come from different tables or passages of the source.
Tests used:
mice [1] = assay: Y maze test of learning and memory ability of mice; format: in vivo; conditions: fed 9 mg/kg, Y maze after 40 minutes, incorrect alternations before 10 continuous correct choices
Description: 20 female and male mice weighted 18˜23 g were selected and divided evenly into two groups. The treatment group was fed with total dose of Xanthoceraside at the ratio of 9 mg/kg mice weight, and the control group was fed with the same amount of normal saline. After 40 minutes, they were put into Y maze respectively for performance observation. The number of incorrect alternations for a mice were recorded before it made correct choices continuously for 10 times. If errors more than 30, cutting the value to 30.

[2] = system: MDA-MB-435 human breast cancer; assay: anti-tumor activity in vitro, SRB; format: cell-based; conditions: MDA-MB-435, SRB
Text: (§1) Take Xanthoceraside derived from the example 3 to do a test on tumor cell in vitro.

[3] = system: Bel-7402 human liver cancer; assay: anti-tumor activity in vitro, SRB; format: cell-based; conditions: Bel-7402, SRB
Text: as §1

[4] = system: BGC-823 human gastric cancer; assay: anti-tumor activity in vitro, SRB; format: cell-based; conditions: BGC-823, SRB
Text: as §1

[5] = system: PC-3MIE8 human prostate cancer; assay: anti-tumor activity in vitro, SRB; format: cell-based; conditions: PC-3MIE8, SRB
Text: as §1

mice [6] = assay: Y maze test, memory retrieval impairment of mice induced by scopolamine; format: in vivo; conditions: scopolamine 2.0 mg/kg, then injection 6 mg/kg, Y maze after 20 minutes
Description: Mice were trained based on the stochastic three arms Y maze test, to screen those who had less than 30 errors of alternation before they continuously made correct choices for 10 times. After relaxed for 24 hours, the selected ones were randomized into two groups and for all of them scopolamine was injected into celiac at the ratio of 2.0 mg/kg mice weight to cause their learning and memory impairment. After 15 minutes, the mice in the treatment group were given an injection of total dose of Xanthoceraside at ratio of 6 mg/kg mice weight, while those in the control group were given an injection of the same amount of normal saline. After 20 minutes, they were arranged respectively into Y maze and the number of incorrect alternations before they made correct choices continuously for 10 times.

mice [7] = assay: regular static hypoxia tolerance in an isolated environment (death time); format: in vivo; conditions: oral 2 mg twice a day for 6 days
Description: The above obtained Xanthoceraside was for the test of regular static hypoxia tolerance in an isolated environment to observe the effect of Xanthoceraside on death time of animals.
The test consisted of two sections. Each section was divided into two groups: control and treatment. There were three measurements to calculate death time of the mice. Those in treatment group took oral dosing of 2 mg of Xanthoceraside twice a day for 6 days. The three parameters are: • The average death time of whole group (xt); • The super average death time (xp): based on the average death time of the control group (xc), calculate the death time (xp), which is greater than the control group (xc), and calculate the mean. • The delayed death time (xp-xc): the super average death time (xp) minus the control group (xc) and calculated the mean.

HL-60 human leukemia = assay: anti-tumor activity in vitro, MTT; format: cell-based
Text: as §1

Hela cervical cancer = assay: anti-tumor activity in vitro, SRB; format: cell-based, human
Text: as §1

**Q.** Which “Error frequency (X ± SD)” value (mice [1]) does the source give for `C/C=C(/C)C(=O)O[C@H]1[C@H](OC(=O)/C(C)=C\C)C2(CO)C(CC1(C)C)C1=CCC3[C@@]4(C)CC[C@H](OC5OC(C(=O)O)C(O)C(OC6OC(CO)C(O)C6O)C5OC5OC(CO)C(O)C(O)C5O)C(C)(C)C4CC[C@@]3(C)[C@]1(C)[C@@H](O)[C@H]2O` (stereo partly drawn) [Xanthoceraside, 3-O-(α-L-arabinofuranosyl(1→3)-β-D-galactopyranosyl(1→2))-β-D-glucuronopyranosyl-21,22-diangeloyl-R1-barrigenol] here?
**A.** Its value is 6.9 ± 2.3.

**Q.** What about the IC50 ([2]; Homo sapiens) of the same compound?
**A.** Its IC50 is 18.6 µg/mL (≈ 16.3 µM).

**Q.** What about the “Inhibition ratio (%)” value ([2]; 0.5 μg/ml) of the same compound?
**A.** The value was −4.50%.

**Q.** What about the “Inhibition ratio (%)” value ([2]; 5.0 μg/ml) of the same compound?
**A.** The value was 2.92%.

**Q.** And the “Inhibition ratio (%)” value ([2]; 50.0 μg/ml)?
**A.** Its value is 93.14%.

**Q.** What about the “Inhibition ratio (%)” value ([3]; 0.5 μg/ml) of the same compound?
**A.** The value was −9.78%.

**Q.** What about the “Inhibition ratio (%)” value ([3]; 5.0 μg/ml) of the same compound?
**A.** The value was −1.24%.

**Q.** What about the “Inhibition ratio (%)” value ([3]; 50.0 μg/ml) of the same compound?
**A.** The value was 92.96%.

**Q.** And the IC50 ([3]; Homo sapiens)?
**A.** Its IC50 is 39.3 µg/mL (≈ 34.5 µM).

**Q.** What about the “Inhibition ratio (%)” value ([4]; 0.5 μg/ml) of the same compound?
**A.** The value was −11.71%.

**Q.** What about the “Inhibition ratio (%)” value ([4]; 5.0 μg/ml) of the same compound?
**A.** The value was −5.92%.

**Q.** And the “Inhibition ratio (%)” value ([4]; 50.0 μg/ml)?
**A.** The value was 92.45%.

**Q.** What about the IC50 ([4]; Homo sapiens) of the same compound?
**A.** Its IC50 is 40.2 µg/mL (≈ 35.3 µM).

**Q.** What about the IC50 ([5]; Homo sapiens) of the same compound?
**A.** The IC50 was 41 µg/mL (≈ 35.9 µM).

**Q.** What about the “Inhibition ratio (%)” value ([5]; 0.5 μg/ml) of the same compound?
**A.** Its value is −13.90%.

**Q.** What about the “Inhibition ratio (%)” value ([5]; 5.0 μg/ml) of the same compound?
**A.** Its value is −7.63%.

**Q.** What about the “Inhibition ratio (%)” value ([5]; 50.0 μg/ml) of the same compound?
**A.** The value was 92.03%.

**Q.** What about the “Error frequency (X ± SD)” value (mice [6]) of the same compound?
**A.** Its value is 4.0 ± 1.5.

**Q.** And the “xp − xc, delayed death time” value (mice [7]; First section)?
**A.** The value was 14.59 ± 14.83(17) min.

**Q.** What about the “xp, super average death time” value (mice [7]; First section) of the same compound?
**A.** Its value is 56.51 ± 14.59(17) min.

**Q.** And the “xt, average death time of whole group” value (mice [7]; First section)?
**A.** The value was 41.84 ± 15.35(30) min.

**Q.** And the “xp − xc, delayed death time” value (mice [7]; Second section)?
**A.** Its value is 8.40 ± 4.94(33) min.

**Q.** What about the “xp, super average death time” value (mice [7]; Second section) of the same compound?
**A.** Its value is 33.40 ± 4.94(33) min.

**Q.** What about the “xt, average death time of whole group” value (mice [7]; Second section) of the same compound?
**A.** Its value is 31.55 ± 6.68(41) min.

**Q.** What about the IC50 (HL-60 human leukemia; HL-60, MTT) of the same compound?
**A.** The IC50 was 41.29 µg/mL (≈ 36.2 µM).

**Q.** And the “Inhibition ratio (%)” value (HL-60 human leukemia; HL-60, MTT, 0.5 μg/ml)?
**A.** The value was 9.34%.

**Q.** What about the “Inhibition ratio (%)” value (HL-60 human leukemia; HL-60, MTT, 5.0 μg/ml) of the same compound?
**A.** Its value is 17.68%.

**Q.** What about the “Inhibition ratio (%)” value (HL-60 human leukemia; HL-60, MTT, 50.0 μg/ml) of the same compound?
**A.** Its value is 56.90%.

**Q.** And the IC50 (HL-60 human leukemia; Homo sapiens, HL-60, HL-60, MTT, read-out: IC50)?
**A.** The IC50 was 41.9 µg/mL (≈ 36.7 µM).

**Q.** What about the “Inhibition ratio (%)” value (Hela cervical cancer; 0.5 μg/ml) of the same compound?
**A.** Its value is −12.72%.

**Q.** What about the “Inhibition ratio (%)” value (Hela cervical cancer; 5.0 μg/ml) of the same compound?
**A.** Its value is −4.05%.

**Q.** What about the “Inhibition ratio (%)” value (Hela cervical cancer; 50.0 μg/ml) of the same compound?
**A.** The value was 95.49%.

**Q.** What about the IC50 (Hela cervical cancer; Homo sapiens) of the same compound?
**A.** Its IC50 is 34.2 µg/mL (≈ 30 µM).
